Measured values as given in US9645154B2, “Method for detecting cancer cell” (ARKRAY, Inc., priority 2010, dated 2017).

Key:
[1] = test system: human fibrosarcoma cell line HT1080; test: Labeled sugar incorporation, fluorescence microscopy image analysis (positive rate); format: cell-based; details: 10 mM, 5 min, 23° C.
Description: (§1) In accordance with the conventional method, cultured human fibrosarcoma cell line HT1080 (DS Pharma Biomedical Co., Ltd.) was harvested with trypsin (Invitrogen). The human gastric cancer cell line SNU-1 (ATCC), which is a suspension cell line, was directly harvested without any trypsin treatment. The cell suspension of the harvested cancer cells was centrifuged, and the supernatant was removed. The cells were resuspended with Dulbecco's PBS (−) (Nissui Pharmaceutical Co., Ltd.) and centrifuged, and the supernatant was removed again.
(§2) When performing the hemolyzing treatment, the blood cell fraction collected as described above was hemolyzed using ammonium chloride (STEMCELL Technologies) according to the manufacture's manuals.
(§3) The number of the cells was counted for each cell line using a hemacytometer in accordance with the conventional method, and then 10^5 to 10^6 cells per sample (cell suspension) was aliquoted. Each of the sample was centrifuged to remove the supernatant. Subsequently, 2-NBDG (Wako Pure Chemical Industries, Ltd.; at the final concentration given in Table 3 or 4) dissolved in Dulbecco's PBS (−) was added thereto, and the cells were suspended well. After the reaction, Dulbecco's PBS (−) was added to the mixture, and the resultant was centrifuged to remove the supernatant. The cells were resuspended with Dulbecco's PBS (−) and centrifuged, and the supernatant was removed again. The steps of resuspending cells with Dulbecco's PBS (−), centrifuging and removing the supernatant were then repeated 2 to 3 times, thereby washing the cells thoroughly. The cells were resuspended with Dulbecco's PBS (−), the concentration thereof was adjusted, and then added dropwise to a 384-well plate. The plate was centrifuged to spin down the cells. The image was captured with a fluorescence microscope (Nikon Corp.) using B-2A filter combination (Nikon Corp.). The B-2A set covers the following wavelengths. EX (excitation wavelength): 475±15 nm, DM: 505 nm or longer, BA (fluorescence wavelength) 520 nm or longer.
(§4) The acquired images were analyzed using an image analysis software NIS-ELEMENTS (trade name, Nikon Corp.) to evaluate the fluorescence intensity of the cell. […]
In a manner similar to Example 2, each of human breast adenocarcinoma cells (cell line name: MCF-7; DS Pharma Biomedical Co., Ltd.), human colon adenocarcinoma cells (cell line name: SW620; DS Pharma Biomedical Co., Ltd.), human prostate cancer cells (cell line name: PC3; DS Pharma Biomedical Co., Ltd.), human alveolar epithelial cancer cells (cell line name: NCI-H358; DS Pharma Biomedical Co., Ltd.), human gastric cancer cells (cell line name: SNU-1; ATCC) and human fibrosarcoma cells (cell line name: HT1080; DS Pharma Biomedical Co., Ltd.) was detected with the labeled sugar (2-NBDG).

[2] = test system: Blood cells; test: Labeled sugar incorporation, fluorescence microscopy image analysis (false-positive/negative rate); format: cell-based, human; details: 10 mM, 5 min, 23° C.
Description: (§5) Blood was collected from a human subject using a vacuum blood collection tube (with EDTA•2K). Blood cells were separated using HetaSep (STEMCELL Technologies) in accordance with manufacturer's instructions.
as §2, §3, §4

[3] = test system: Blood cells; test: Labeled amino acid incorporation, fluorescence microscopy image analysis (false-positive/negative rate); format: cell-based, human; details: hemolyzed, 30 min, 37° C.; for Negative rate (Blood cells) / Positive rate (Blood cells): 1 mM
Description: as §5
When performing the hemolyzing treatment, the blood cell fraction collected as described above was hemolyzed using ammonium chloride (STEMCELL Technologies) at room temperature according to the manufacture's manuals.
The number of the cells was counted for each cell line using a hemacytometer in accordance with the conventional method, and then 10^5 to 10^6 cells per sample (cell suspension) was aliquoted. The sample was centrifuged to remove the supernatant. Subsequently, H-Ala(2-Bacd)-OH (Watanabe Chemical Industries, Ltd.) was added thereto (at the final concentration given in Table 5 or 6), and the cells were suspended well. After the reaction, Dulbecco's PBS (−) was added to the mixture, and the resultant was centrifuged to remove the supernatant. The cells were resuspended with Dulbecco's PBS and centrifuged, and the supernatant was removed again. The steps of resuspending cells with Dulbecco's PBS (−), centrifuging and removing the supernatant were then repeated 2 to 3 times, thereby washing the cells thoroughly. The cells were resuspended with Dulbecco's PBS (−), the concentration thereof was adjusted, and then added dropwise to a 384-well plate. The plate was centrifuged to spin down the cells. The image was captured with a fluorescence microscope (Nikon Corp.) using B-2A filter set (Nikon Corp.). The B-2A set covers the same wavelengths as those in Example 2. The acquired images were analyzed using an image analysis software NIS-ELEMENTS (trade name, Nikon Corp.) to evaluate the fluorescence intensity of the cell.
With regard to the labeling substance, H-Lys(DMACA)-OH (Watanabe Chemical Industries, Ltd.) or H-Glu(EDANS)—OH (Watanabe Chemical Industries, Ltd.) was used instead of using H-Ala(2-Bacd)-OH in the staining of Example 3.
(§6) Further, the fluorescence intensity of the cells was evaluated in a manner similar to Example 2, except the fluorescence filter covering the wavelengths of EX (excitation wavelength) of 365/±10, DM of 400 or longer and BA (fluorescence wavelength) of 470±20 was used based on the fluorescent property of the fluorescent substances.

[4] = test system: human gastric cancer cell line SNU-1; test: Labeled amino acid incorporation, fluorescence microscopy image analysis (positive rate); format: cell-based; details: 1 mM; hemolyzed, 30 min, 37° C.
Description: as §1, with “prostate cancer” for “fibrosarcoma”, “PC3” for “HT1080”
The number of the cells was counted for each cell line using a hemacytometer in accordance with the conventional method, and then 10^5 to 10^6 cells per sample (cell suspension) was aliquoted. The sample was centrifuged to remove the supernatant. […] The image was captured with a fluorescence microscope (Nikon Corp.) using B-2A filter set (Nikon Corp.). […] The acquired images were analyzed using an image analysis software NIS-ELEMENTS (trade name, Nikon Corp.) to evaluate the fluorescence intensity of the cell. […]
as §6

Compound	Positive rate (Fibrosarcoma cell line) ([1]; hemolyzed)	Positive rate (Fibrosarcoma cell line) ([1]; not hemolyzed)	Negative rate (Blood cells (fresh blood)) ([2]; hemolyzed)	Positive rate (Blood cells (fresh blood)) ([2]; hemolyzed)	Negative rate (Blood cells (fresh blood)) ([2]; not hemolyzed)	Positive rate (Blood cells (fresh blood)) ([2]; not hemolyzed)	Negative rate (Blood cells) [3]	Positive rate (Blood cells) [3]	selectivity for a cancer cell in view of a negative rate ([3]; gastric cancer cell line versus blood cells, Table 15)	Positive rate (Gastric cancer cell line) [4]
O=[N+]([O-])c1ccc(NCC2OC(O)C(O)C(O)[C@@H]2O)c2nonc12 (stereo partly drawn) [6-NBDG, 6-[N-(7-nitrobenz-2-oxa-1,3-diazol-4-yl)amino]-6-deoxy-D-glucose]	78.7%	71.1%	99.1%	0.9%	99.1%	0.9%	–	–	–	–
N[C@@H](CCC(=O)NCCNc1cccc2c(S(=O)(=O)O)cccc12)C(=O)O [H-Glu(EDANS)-OH]	–	–	–	–	–	–	99.4%	0.6%	high selectivity	56.9%
CN(C)c1ccc2c(CC(=O)NCCCC[C@H](N)C(=O)O)cc(=O)oc2c1 [H-Lys(DMACA)-OH]	–	–	–	–	–	–	82.3%	17.7%	–	86.1%
